Tests used:
Type in all cases: in vivo
Phalaris canariensis = assay: Herbicidal action on PHACA, visual scoring vs untreated, post-emergence 2-4 leaf stage (greenhouse / field trials)
Description: (§1) The examples given below were performed in the greenhouse and, in some cases, in field trials.
(§2) The herbicides, or combinations, were applied in cereals after the weeds had emerged naturally using plot sprayers. After application, the results, such as damage to the crop plants and effect on broad-leaved weeds/grass weeds were assessed by means of visual scoring. The herbicidal action was assessed qualitatively and quantitatively by comparing untreated and treated plots on the basis of the effect on plant growth and the development of chloroses and necroses down to the complete destruction of the weeds (0–100%). The application was effected when the crop plants and weeds were in the 2–4 leaf stage. The test was evaluated approximately 4 weeks after application.
(§3) In the greenhouse experiments, the crop plants and broadleaved weeds/grass weeds were grown in No. 13 pots and treated in the 2–4 leaf stage. The pots were subsequently placed in the greenhouse under good growth conditions (temperature, atmospheric humidity, water supply).
(§4) The assessments were carried out similarly to those in the field trials, i.e. visual scoring of the treated plants in comparison with untreated control variants. These assessments were carried out 3 weeks after applying the test preparations and their combinations. The experiments had been set up in two replications.
(§5) To assess the combination effects, the activities of the individual components were added and compared with the activity of the mixtures in equal doses. It was frequently observed that the efficacies of the combinations exceeded the total of the individual activities.
(§6) In cases with less clear effects, the expected value was calculated using Colby's formula and compared with the empirically determined result. The calculated efficacy of a combination which is expected in theory is determined is using S.R. Colby's formula: “Calculation of synergistic and antagonistic responses of herbicide combinations”, Weeds 15 (1967), pages 20 to 22.
(§7) [formula] where • X=% damage caused by herbicide A at a rate of ×kg a.i./ha; • Y=% damage caused by herbicide B at a rate of y kg a.i./ha; • Z=% damage caused by a further herbicide C at a rate of z kg a.i./ha; • E=expected value, i.e. expected damage caused by herbicides A+B (or A+B+C) at x+y (or x+y+z) kg a.i./ha.
(§8) Synergistic effects were assumed to be when the empirical value exceeded the expected value. In the case of combinations with individual components with the same active substances, comparisons via the total formula were also possible.

Triticum aestivum = assay: Damage to crop plant TRZAW, visual scoring vs untreated
Description: as §1, §2, §3, §4

Apera spica venti = assay: Herbicidal action on APESV, visual scoring vs untreated, post-emergence 2-4 leaf stage; details: Table 1
Description: as §1, §2, §3, §4, §5, §6, §7, §8

Lolium multiflorum = assay: Herbicidal action on LOLMU, visual scoring vs untreated, post-emergence 2-4 leaf stage
Description: as §1, §2, §3, §4, §5, §6, §7, §8

Zea mays = assay: Damage to crop plant ZEAMA, visual scoring vs untreated
Description: as §1, §2, §3, §4

Echinochloa crus galli = assay: Herbicidal action on ECHCR, visual scoring vs untreated, post-emergence 2-4 leaf stage
Description: as §1, §2, §3, §4, §5, §6, §7, §8

Secale cereale = assay: Damage to crop plant SECCW, visual scoring vs untreated
Description: as §1, §2, §3, §4

Fallopia convolvulus = assay: Herbicidal action on FALCO, visual scoring vs untreated, post-emergence 2-4 leaf stage
Description: as §1, §2, §3, §4, §5, §6, §7, §8

Centaurea cyanus = assay: Herbicidal action on CENCY, visual scoring vs untreated, post-emergence 2-4 leaf stage
Description: as §1, §2, §3, §4, §5, §6, §7, §8

Gallium aparine = assay: Herbicidal action on GALAP, visual scoring vs untreated, post-emergence 2-4 leaf stage; details: Table 7
Description: as §1, §2, §3, §4, §5, §6, §7, §8

Viola arvensis = assay: Herbicidal action on VIOAR, visual scoring vs untreated, post-emergence 2-4 leaf stage; details: Table 7
Description: as §1, §2, §3, §4, §5, §6, §7, §8

Compound: COC(=O)C(C)Oc1ccc(Oc2ccc(Cl)cc2Cl)cc1 (racemic) [B3), diclofop-methyl]
- PHACA % control (Phalaris canariensis; Table 1, 225 g of a.i./ha): 0%
- PHACA % control (Phalaris canariensis; Table 1, 450 g of a.i./ha): 0%
- PHACA % control (Phalaris canariensis; Table 1, 900 g of a.i./ha): 0%
- TRZAW % damage (Triticum aestivum; Table 1, 225 g of a.i./ha): 0%
- TRZAW % damage (Triticum aestivum; Table 1, 450 g of a.i./ha): 0%
- TRZAW % damage (Triticum aestivum; Table 1, 900 g of a.i./ha): 0%
- APESV % control (Apera spica venti; 225 g of a.i./ha): 0%
- APESV % control (Apera spica venti; 450 g of a.i./ha): 0%
- APESV % control (Apera spica venti; 900 g of a.i./ha): 8%

Compound: CC(C)c1ccc(NC(=O)N(C)C)cc1 [B2), 3-(4-isopropylphenyl)-1,1-dimethylurea]
- PHACA % control (Phalaris canariensis; Table 3, 375 g of a.i./ha): 0%
- PHACA % control (Phalaris canariensis; Table 3, 750 g of a.i./ha): 0%
- PHACA % control (Phalaris canariensis; Table 3, 1500 g of a.i./ha): 50%
- TRZAW % damage (Triticum aestivum; in vivo): 0%
- LOLMU % control (Lolium multiflorum; Table 3, 375 g of a.i./ha): 0%
- LOLMU % control (Lolium multiflorum; Table 3, 750 g of a.i./ha): 0%
- LOLMU % control (Lolium multiflorum; Table 3, 1500 g of a.i./ha): 0%

Compound: COc1cc(OC)nc(NC(=O)NS(=O)(=O)c2ncccc2C(=O)N(C)C)n1 [B13), 1-(4,6-dimethoxypyrimidin-2-yl)-3-(3-dimethylcarbamoyl-2-pyridylsulfonyl)urea]
- ZEAMA % damage (Zea mays; Table 4, 15 g of a.i./ha): 0%
- ZEAMA % damage (Zea mays; Table 4, 30 g of a.i./ha): 0%
- ZEAMA % damage (Zea mays; Table 4, 60 g of a.i./ha): 2%
- ECHCR % control (Echinochloa crus galli; Table 4, 15 g of a.i./ha): 0%
- ECHCR % control (Echinochloa crus galli; Table 4, 30 g of a.i./ha): 73%
- ECHCR % control (Echinochloa crus galli; Table 4, 60 g of a.i./ha): 75%

Compound: CCS(=O)(=O)c1cccnc1S(=O)(=O)NC(=O)Nc1nc(OC)cc(OC)n1 [B14), 1-(4,6-dimethoxypyrimidin-2-yl)-3-(3-ethylsulfonyl-2-pyridylsulfonyl) urea]
- ECHCR % control (Echinochloa crus galli; Table 4, 5 g of a.i./ha): 15%
- ECHCR % control (Echinochloa crus galli; Table 4, 10 g of a.i./ha): 60%
- ECHCR % control (Echinochloa crus galli; Table 4, 20 g of a.i./ha): 85%

Compound: Cc1cc(Cl)ccc1O[C@H](C)C(=O)O [B16), (R)-2-(4-chloro-o-tolyloxy)propionic acid]
- TRZAW % damage (Triticum aestivum; Table 5, 125 g of a.i./ha): 0%
- TRZAW % damage (Triticum aestivum; Table 5, 250 g of a.i./ha): 0%
- TRZAW % damage (Triticum aestivum; Table 5, 500 g of a.i./ha): 0%
- TRZAW % damage (Triticum aestivum; Table 5, 1000 g of a.i./ha): 0%
- SECCW % damage (Secale cereale; Table 6, 600 g of a.i./ha): 0%
- SECCW % damage (Secale cereale; Table 6, 2500 g of a.i./ha): 0%
- FALCO % control (Fallopia convolvulus; Table 5, 125 g of a.i./ha): 0%
- FALCO % control (Fallopia convolvulus; Table 5, 250 g of a.i./ha): 15%
- FALCO % control (Fallopia convolvulus; Table 5, 500 g of a.i./ha): 55%
- FALCO % control (Fallopia convolvulus; Table 5, 1000 g of a.i./ha): 68%
- CENCY % control (Centaurea cyanus; Table 6, 600 g of a.i./ha): 30%
- CENCY % control (Centaurea cyanus; Table 6, 2500 g of a.i./ha): 70%

Compound: Cc1cc(Cl)ccc1OCC(=O)O [B17), (4-chloro-2-methylphenoxy) acetic acid]
- TRZAW % damage (Triticum aestivum; Table 5, 250 g of a.i./ha): 0%
- FALCO % control (Fallopia convolvulus; Table 5, 250 g of a.i./ha): 0%
- FALCO % control (Fallopia convolvulus; Table 5, 500 g of a.i./ha): 68%
- FALCO % control (Fallopia convolvulus; Table 5, 1000 g of a.i./ha): 75%

Compound: COc1c(Cl)ccc(Cl)c1C(=O)O [B20), 3,6-dichloro-o-anisic acid]
- LOLMU % control (Lolium multiflorum; Table 5, 50 g of a.i./ha): 5%
- LOLMU % control (Lolium multiflorum; Table 5, 100 g of a.i./ha): 10%
- LOLMU % control (Lolium multiflorum; Table 5, 200 g of a.i./ha): 18%
- LOLMU % control (Lolium multiflorum; Table 5, 400 g of a.i./ha): 40%

Compound: Nc1c(Cl)c(F)nc(OCC(=O)O)c1Cl [B21), 4-amino-3,5-dichloro-6-fluoro-2-pyridyloxyacetic acid]
- FALCO % control (Fallopia convolvulus; Table 5, 50 g of a.i./ha): 73%
- FALCO % control (Fallopia convolvulus; Table 5, 100 g of a.i./ha): 80%
- FALCO % control (Fallopia convolvulus; Table 5, 200 g of a.i./ha): 95%

Compound: N#Cc1cc(I)c(O)c(I)c1 [B22), 4-hydroxy-3,5-di-iodobenzonitrile]
- TRZAW % damage (Triticum aestivum; in vivo): 0%
- GALAP % control (Gallium aparine; 62.5 g of a.i./ha): 0%
- GALAP % control (Gallium aparine; 125 g of a.i./ha): 3%
- GALAP % control (Gallium aparine; 250 g of a.i./ha): 10%
- GALAP % control (Gallium aparine; 500 g of a.i./ha): 18%

Compound: CCOC(=O)COC(=O)c1cc(Oc2ccc(C(F)(F)F)cc2Cl)ccc1[N+](=O)[O-] [B25), fluoroglycofen-ethyl]
- VIOAR % control (Viola arvensis; 4 g of a.i./ha): 3%
- VIOAR % control (Viola arvensis; 8 g of a.i./ha): 18%
- VIOAR % control (Viola arvensis; 15 g of a.i./ha): 38%
- VIOAR % control (Viola arvensis; 30 g of a.i./ha): 62%
- TRZAW % damage (Triticum aestivum; in vivo): 0%

Compound: O=C(Nc1ccc(F)cc1F)c1cccnc1Oc1cccc(C(F)(F)F)c1 [B32), 2′ 4′-difluoro-2-(α,α,α-trifluoro-m-tolyloxy)nicotinanilide]
- TRZAW % damage (Triticum aestivum; Table 7, 13 g of a.i./ha): 0%
- TRZAW % damage (Triticum aestivum; Table 7, 25 g of a.i./ha): 0%
- TRZAW % damage (Triticum aestivum; Table 7, 50 g of a.i./ha): 0%
- TRZAW % damage (Triticum aestivum; Table 7, 100 g of a.i./ha): 0%
- GALAP % control (Gallium aparine; 13 g of a.i./ha): 0%
- GALAP % control (Gallium aparine; 25 g of a.i./ha): 0%
- GALAP % control (Gallium aparine; 50 g of a.i./ha): 5%
- GALAP % control (Gallium aparine; 100 g of a.i./ha): 5%

Compound: CCNc1nc(Cl)nc(NC(C)C)n1 [B36), 6-chloro-N-^2-ethyl-N-4-isopropyl-1,3,5-triazine-2,4-diamine]
- ZEAMA % damage (Zea mays; Table 8, 375 g of a.i./ha): 0%
- ZEAMA % damage (Zea mays; Table 8, 750 g of a.i./ha): 0%
- ZEAMA % damage (Zea mays; Table 8, 1500 g of a.i./ha): 0%
- ZEAMA % damage (Zea mays; Table 8, 3000 g of a.i./ha): 0%
- ECHCR % control (Echinochloa crus galli; Table 8, 375 g of a.i./ha): 0%
- ECHCR % control (Echinochloa crus galli; Table 8, 750 g of a.i./ha): 0%
- ECHCR % control (Echinochloa crus galli; Table 8, 1500 g of a.i./ha): 3%
- ECHCR % control (Echinochloa crus galli; Table 8, 3000 g of a.i./ha): 3%

Compound: COc1cc(OC)nc(NC(=O)NS(=O)(=O)N(C)S(C)(=O)=O)n1 [B40), 1-(4,6-dimethoxypyrimidin-2-yl)-3-mesyl (methyl)-sulfamoylurea]
- SECCW % damage (Secale cereale; Table 10, 20 g of a.i./ha): 0%
- CENCY % control (Centaurea cyanus; Table 10, 20 g of a.i./ha): 25%

Compound: COC(=O)c1ccccc1S(=O)(=O)NC(=O)Nc1nc(C)nc(OC)n1 [B41), metsulfuron-methyl]
- TRZAW % damage (Triticum aestivum; Triticum aestivum, in vivo): 0%
- TRZAW % damage (Triticum aestivum; in vivo): 0%
- CENCY % control (Centaurea cyanus; Table 9, 1 g of a.i./ha): 0%
- CENCY % control (Centaurea cyanus; Table 9, 3 g of a.i./ha): 0%
- CENCY % control (Centaurea cyanus; Table 9, 5 g of a.i./ha): 0%
- CENCY % control (Centaurea cyanus; Table 9, 10 g of a.i./ha): 0%

Compound: COC(=O)c1ccccc1S(=O)(=O)NC(=O)N(C)c1nc(C)nc(OC)n1 [B42), tribenuron-methyl]
- TRZAW % damage (Triticum aestivum; Triticum aestivum, in vivo): 0%
- FALCO % control (Fallopia convolvulus; Table 9, 5 g of a.i./ha): 88%
- FALCO % control (Fallopia convolvulus; Table 9, 10 g of a.i./ha): 93%
- FALCO % control (Fallopia convolvulus; Table 9, 20 g of a.i./ha): 95%
- FALCO % control (Fallopia convolvulus; Table 9, 40 g of a.i./ha): 97%

Compound: imazamethabenz-methyl [B8)]
- PHACA % control (Phalaris canariensis; Table 3, 375 g of a.i./ha): 0%
- PHACA % control (Phalaris canariensis; Table 3, 750 g of a.i./ha): 0%
- PHACA % control (Phalaris canariensis; Table 3, 1500 g of a.i./ha): 13%
- LOLMU % control (Lolium multiflorum; Table 3, 375 g of a.i./ha): 0%
- LOLMU % control (Lolium multiflorum; Table 3, 750 g of a.i./ha): 0%
- LOLMU % control (Lolium multiflorum; Table 3, 1500 g of a.i./ha): 20%

— patent US7074743B1, “Herbicidal composition comprising 4-iodo-2-[3-(4-methoxy-6-methyl-1,3,5-triazin-2-yl)ureidosulfonyl]benzoic esters” (priority 1995, dated 2006)
